Results published in ChEMBL document CHEMBL2417488, “Inhibitory effects of p-dodecylaminophenol on the invasiveness of human fibrosarcoma cell line HT1080” (Bioorg Med Chem, 2013).
Calls of active or inactive are those of the source. No cut-off for these calls is given here.

Experiments:
[1] = (§1) Toxicity in human HT1080 cells assessed as reduction of cell growth at 1 uM after 24 hrs; type: cell-based, HT-1080; details: HT1080 cells, read-out: Activity
[2] = target: 72 kDa type IV collagenase (Homo sapiens) (UniProt P08253); experiment: Inhibition of MMP2 activity in human HT1080 cells at 1 uM after 24 hrs; type: cell-based; details: HT-1080
HT-1080 [3] = experiment: Induction of RECK mRNA expression in human HT1080 cells at 1 uM after 24 hrs by RT-PCR analysis relative to control; type: functional
HT-1080 [4] = experiment: Reduction of MMP9 mRNA level in human HT1080 cells at 1 uM after 24 hrs by RT-PCR analysis relative to control; type: functional
HT-1080 [5] = experiment: Reduction of MMP2 mRNA level in human HT1080 cells at 1 uM after 24 hrs by RT-PCR analysis relative to control; type: functional, cell-based
HT-1080 [6] = experiment: Antiinvasive activity in human HT1080 cells assessed as reduction of cell number at 1 uM after 22 hrs by matrigel invasion assay; type: functional; parameters: scale not given: the % may be the effect or the level left
[7] = target: Matrix metalloproteinase-9 (Homo sapiens) (UniProt P14780); experiment: Inhibition of MMP9 activity in human HT1080 cells at 1 uM after 24 hrs; type: cell-based; details: HT-1080
HT-1080 [8] = experiment: Induction of RECK protein expression in human HT1080 cells at 4 uM after 24 hrs by electrophoresis analysis relative to control; type: functional
HT-1080 [9] = experiment: Reduction of MMP2 level in human HT1080 cells after 24 to 72 hrs by gelatin zymography analysis; type: functional, cell-based
HT-1080 [10] = experiment: Cell cycle arrest in human HT1080 cells assessed as accumulation at G2/M phase at 10 uM after 72 hrs using propidium iodide staining by FACS analysis relative to control; type: functional
HT-1080 [11] = experiment: Reduction of proMMP9 level in human HT1080 cells after 24 to 72 hrs by gelatin zymography analysis; type: functional, cell-based
HT-1080 [12] = experiment: Cell cycle arrest in human HT1080 cells assessed as accumulation at G2/M phase at 1 uM after 72 hrs using propidium iodide staining by FACS analysis relative to control; type: functional
HT-1080 [13] = experiment: Reduction of MMP9 level in human HT1080 cells after 24 to 72 hrs by gelatin zymography analysis; type: functional, cell-based
HT-1080 [14] = experiment: Cell cycle arrest in human HT1080 cells assessed as accumulation at S phase at 1 uM after 72 hrs using propidium iodide staining by FACS analysis relative to control; type: functional
HT-1080 [15] = experiment: Cytotoxicity against human HT1080 cells assessed as growth inhibition after 72 hrs by trypan blue dye exclusion assay; type: functional, cell-based; details: HT-1080, 72 h
HT-1080 [16] = experiment: Cell cycle arrest in human HT1080 cells assessed as accumulation at G0/G1 phase at 4 uM after 72 hrs using propidium iodide staining by FACS analysis relative to control; type: functional
HT-1080 [17] = experiment: Reduction of proMMP2 level in human HT1080 cells after 24 to 72 hrs by gelatin zymography analysis; type: functional, cell-based
HT-1080 [18] = experiment: Cell cycle arrest in human HT1080 cells assessed as accumulation at G2/M phase at 4 uM after 72 hrs using propidium iodide staining by FACS analysis relative to control; type: functional
HT-1080 [19] = experiment: Cell cycle arrest in human HT1080 cells assessed as accumulation at S phase at 4 uM after 72 hrs using propidium iodide staining by FACS analysis relative to control; type: functional
HT-1080 [20] = experiment: Induction of apoptosis in human HT1080 cells assessed as increase in caspase-3 activity at 4 uM relative to control; type: functional
HT-1080 [21] = experiment: Induction of RECK protein expression in human HT1080 cells at 1 uM after 24 hrs by electrophoresis analysis relative to control; type: functional
HT-1080 [22] = experiment: Cell cycle arrest in human HT1080 cells assessed as accumulation at G0/G1 phase at 10 uM after 72 hrs using propidium iodide staining by FACS analysis relative to control; type: functional
HT-1080 [23] = experiment: Induction of apoptosis in human HT1080 cells assessed as increase in caspase-3 activity at 1 uM relative to control; type: functional, cell-based
HT-1080 [24] = experiment: Cell cycle arrest in human HT1080 cells assessed as accumulation at G0/G1 phase at 1 uM after 72 hrs using propidium iodide staining by FACS analysis relative to control; type: functional
HT-1080 [25] = experiment: Cell cycle arrest in human HT1080 cells assessed as accumulation at S phase after 72 hrs using propidium iodide staining by FACS analysis; type: functional, cell-based
[26] = Cytotoxicity against human HuCCT1 cells; type: functional, cell-based; details: HuCCT-1
HT-1080 [27] = experiment: Induction of apoptosis in human HT1080 cells assessed as increase in caspase-3 activity at 10 uM relative to control; type: functional
HT-1080 [28] = experiment: Cell cycle arrest in human HT1080 cells assessed as accumulation at S phase at 10 uM after 72 hrs using propidium iodide staining by FACS analysis relative to control; type: functional
HT-1080 [29] = experiment: Induction of RECK protein expression in human HT1080 cells after 24 hrs by electrophoresis analysis relative to control; type: functional, cell-based
HT-1080 [30] = experiment: Cytotoxicity against human HT1080 cells assessed as growth inhibition at 4 to 10 uM after 72 hrs by trypan blue dye exclusion assay relative to control; type: functional
HT-1080 [31] = experiment: as §1; type: cell-based; details: ht-1080, 24 h, 1 µM
HT-1080 [32] = experiment: Cytotoxicity against human HT1080 cells; type: functional, cell-based
HT-1080 [33] = experiment: Antiinvasive activity in human HT1080 cells at 30 uM; type: functional
HT-1080 [34] = experiment: Antiinvasive activity in human HT1080 cells at 50 uM; type: functional

Chain of Matrix metalloproteinase-9 (Homo sapiens) (P14780 whole entry): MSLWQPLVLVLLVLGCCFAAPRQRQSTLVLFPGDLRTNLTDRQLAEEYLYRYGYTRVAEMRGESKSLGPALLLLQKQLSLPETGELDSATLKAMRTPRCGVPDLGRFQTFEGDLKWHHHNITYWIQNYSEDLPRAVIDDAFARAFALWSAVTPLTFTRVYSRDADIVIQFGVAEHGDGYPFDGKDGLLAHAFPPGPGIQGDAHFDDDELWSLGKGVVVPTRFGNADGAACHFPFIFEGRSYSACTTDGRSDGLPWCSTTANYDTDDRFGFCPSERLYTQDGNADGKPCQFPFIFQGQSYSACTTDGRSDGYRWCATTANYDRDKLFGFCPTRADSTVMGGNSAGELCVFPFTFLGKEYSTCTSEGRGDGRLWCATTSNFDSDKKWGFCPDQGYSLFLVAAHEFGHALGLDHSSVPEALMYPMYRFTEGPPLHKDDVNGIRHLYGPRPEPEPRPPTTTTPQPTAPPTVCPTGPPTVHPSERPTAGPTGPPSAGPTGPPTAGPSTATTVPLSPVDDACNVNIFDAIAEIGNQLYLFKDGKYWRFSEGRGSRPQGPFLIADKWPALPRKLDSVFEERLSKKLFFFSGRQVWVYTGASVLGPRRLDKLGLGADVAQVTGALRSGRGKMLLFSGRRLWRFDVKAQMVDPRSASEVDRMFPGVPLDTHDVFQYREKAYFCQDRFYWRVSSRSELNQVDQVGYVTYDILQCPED
Chain of 72 kDa type IV collagenase (Homo sapiens) (P08253 110-660 limits assumed): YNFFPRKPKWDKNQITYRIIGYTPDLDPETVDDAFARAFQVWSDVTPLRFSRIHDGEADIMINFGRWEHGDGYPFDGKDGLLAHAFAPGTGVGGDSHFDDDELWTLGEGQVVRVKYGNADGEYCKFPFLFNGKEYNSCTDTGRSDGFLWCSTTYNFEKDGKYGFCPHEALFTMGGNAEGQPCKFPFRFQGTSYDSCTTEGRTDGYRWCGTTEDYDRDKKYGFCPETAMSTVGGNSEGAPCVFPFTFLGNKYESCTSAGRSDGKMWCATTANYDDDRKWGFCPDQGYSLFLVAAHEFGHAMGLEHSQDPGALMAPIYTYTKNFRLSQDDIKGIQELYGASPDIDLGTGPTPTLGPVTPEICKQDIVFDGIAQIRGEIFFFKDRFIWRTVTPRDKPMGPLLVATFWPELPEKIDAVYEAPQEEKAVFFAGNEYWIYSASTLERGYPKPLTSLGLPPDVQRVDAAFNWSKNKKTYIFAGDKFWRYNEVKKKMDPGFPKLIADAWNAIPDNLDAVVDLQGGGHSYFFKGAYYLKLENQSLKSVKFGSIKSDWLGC

In the case of `CC1=C(/C=C/C(C)=C/C=C/C(C)=C/C(=O)Nc2ccc(O)cc2)C(C)(C)CCC1` [FENRETINIDE], the inhibition at 24 h, 1 µM [1] is reported as 4%, the inhibition [2] is reported as “inactive” and the Activity (HT-1080 [3]) is reported as “inactive”. The Activity (HT-1080 [4]) was “inactive”, the Activity (HT-1080 [5]) was “inactive” and the Activity (HT-1080 [6]) was 20%. The inhibition [7] was “inactive”.
With `CCCCCCCCCCCCNc1ccc(O)cc1` the Activity (HT-1080 [8]) was 175%, the Activity (HT-1080 [9]) was “Dose-dependent effect” and the IC50 (HT-1080 [9]) was 2400 nM. For the same compound, the Activity (HT-1080 [10]) was 30.3%, the inhibition at 24 h, 1 µM [1] was 8% and the Activity (HT-1080 [11]) was “Dose-dependent effect”. The IC50 (HT-1080 [11]) was 900 nM, the Activity (HT-1080 [12]) was 28.2% and the Activity (HT-1080 [13]) was “Dose-dependent effect”. It also gave an IC50 (HT-1080 [13]) of 700 nM, an Activity (HT-1080 [14]) of 8.7% and an IC50 (HT-1080 [15]) of 1000 nM. The Activity (HT-1080 [16]) was 58.5%, the Activity (HT-1080 [17]) was “Dose-dependent effect” and the IC50 (HT-1080 [17]) was > 10 µM. For the same compound, the Activity (HT-1080 [18]) was 30.4%, the inhibition [2] was “inactive” and the Activity (HT-1080 [19]) was 11%. The Activity (HT-1080 [3]) was 162%, the “fold change (FC)” value (HT-1080 [20]) was 3.2 and the Activity (HT-1080 [4]) was 60%. For the same compound, the Activity (HT-1080 [5]) was “inactive”, the Activity (HT-1080 [21]) was 140% and the Activity (HT-1080 [22]) was 50.6%. For the same compound, the Activity (HT-1080 [23]) was “inactive”, the Activity (HT-1080 [24]) was 63.1% and the Activity (HT-1080 [25]) was “Dose-dependent effect”. The IC50 [26] was 2000 nM, the “fold change (FC)” value (HT-1080 [27]) was 4.8 and the Activity (HT-1080 [6]) was 80%. For the same compound, the Activity (HT-1080 [28]) was 19.1%, the inhibition [7] was 50% and the Activity (HT-1080 [29]) was “Dose-dependent effect”. For the same compound, the “growth inhibition (GI)” value (HT-1080 [30]) was 77%.
In the case of `CC1=C(/C=C/C(C)=C/C=C/C(C)=C/C(=O)O)C(C)(C)CCC1` [TRETINOIN], the Activity (HT-1080 [31]) is reported as “Non-toxic”, the inhibition [2] is reported as “inactive” and the Activity (HT-1080 [3]) is reported as “inactive”. The Activity (HT-1080 [4]) was “inactive”, the Activity (HT-1080 [5]) was “inactive” and the Activity (HT-1080 [6]) was “inactive”. The inhibition [7] was “inactive”.
For `COC(=O)[C@H](CCSC)NC(=O)c1ccc(CNCc2c[nH]cn2)cc1-c1ccccc1C`, the IC50 (HT-1080 [32]) was > 50 µM.
Work on `C[C@@H](N)c1ccc(C(=O)Nc2ccncc2)cc1.Cl` yielded an Activity (HT-1080 [33]) of 50%.
Work on `O=C(CCCCCCSc1ccc2ccccc2c1)NO` yielded an IC50 (HT-1080 [32]) of 3 µM.
For `O=S(=O)(c1cccc2cnccc12)N1CCCNCC1` [FASUDIL], the Activity (HT-1080 [34]) was 26%.
`COc1cc(C2Oc3cc([C@H]4Oc5cc(O)cc(O)c5C(=O)[C@@H]4O)ccc3OC2CO)ccc1O` (some centres undefined) [SILIBININ] gave an IC50 (HT-1080 [32]) of 400 µM.
Compound `O=S(=O)(c1cccc2c(O)nccc12)N1CCCNCC1` [HYDROXYFASUDIL] has an Activity (HT-1080 [34]) of 50%.
